Results reported in patent US20260098072A1, “METHODS OF STIMULATING APPETITE AND/OR INCREASING BODY WEIGHT USING NON-NATURALLY OCCURRING MELANOCORTIN RECEPTOR ANTAGONIST ANALOGS” (Endevica Bio, Inc., priority 2022, published 2026).
Entries after “also recorded” stand apart in the source; their conditions may differ. Where two headings read alike, the source gives them in different places. Each block holds one compound with its values, some of them ahead of it. Positions of bridges follow the written chain, without caps; N, C: chain ends. Non-standard residues stand in square brackets, D forms with d. Residues, ends and D or L forms follow the SMILES beside them. No end group written: not given here. d2Nal = N[C@H](Cc1ccc2ccccc2c1)C(=O)O; Nle = CCCC[C@H](N)C(=O)O

Legend:
human MC4R = target: T1, human MC4R (Homo sapiens, UniProt P32245); experiment: cAMP accumulation assay (HTRF), antagonist activity at MC4R; type: cell-based
T1 construct: expressed in transfected cells; host or cells: HEK293/MC4R/CRE-GFP
T1 sequence (P32245 whole entry): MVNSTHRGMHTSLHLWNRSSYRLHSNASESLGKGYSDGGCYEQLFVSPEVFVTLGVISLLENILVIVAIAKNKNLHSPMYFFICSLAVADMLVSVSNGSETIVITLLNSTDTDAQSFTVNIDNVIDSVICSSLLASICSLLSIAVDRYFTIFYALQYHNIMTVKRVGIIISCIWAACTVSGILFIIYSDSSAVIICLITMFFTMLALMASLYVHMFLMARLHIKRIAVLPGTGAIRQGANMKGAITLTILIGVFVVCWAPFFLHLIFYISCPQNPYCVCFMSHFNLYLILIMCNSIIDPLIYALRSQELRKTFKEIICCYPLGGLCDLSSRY

LPS model of cachexia [1] = experiment: LPS-induced cachexia assay in rats; type: in vivo, rat
Experimental: The LPS model uses rats were maintained on a 12 h light/dark schedule with ad libitum access to food and water. Animals were handled daily for a minimum of three consecutive days to decrease non-specific handling stress. On the day of the experiment, individually housed animals received intraperitoneal injections of LPS dissolved in 0.5% low-endotoxin BSA, 0.9% saline or 0.5% BSA in 0.9% saline alone, and were returned to their home cage. The drug or control was administered (ICV, IP, or PO, depending on the type of study) 1-hour after LPS injection.
In the experiments performed in accordance with the present technology, a series of melanocortin receptor antagonist peptides were examined in a bacterial endotoxin inducing cachexia assay. For this assay, a rat is challenged with a single peripheral injection of lipopolysaccharide (LPS). LPS is a heat-stable lipo-polysaccharide, the major component of the outer membrane (capsule) of gram negative bacteria. In non-capsulated strains, it appears as a cell surface protein. LPS produces a strong immune response, including secretion of the proinflammatory cytokines Tumor Necrosis Factor α (TNFα) and interleukin-1 (IL-1). Proinflammatory cytokines are known factors that induce cachexia.
Rats are maintained on a 12-hour light/dark cycle. Animals are handled daily for a minimum of 5 consecutive days to acclimate them to the handling required for the experiment. […] On the day of the experiment, individually housed animals receive intraperitoneal (IP) injections of LPS dissolved in 0.5% low-endotoxin BSA, 0.9% saline or 0.5% BSA in 0.9% saline alone, and returned in their home cage. Melanocortin receptor antagonist peptides were administered (IP or by gavage, depending on the type of study) one hour after the LPS injection. The extent of cachexia is measured by the reduction in food intake, measured every two hours. The cachexia typically lasts only a single day. However, rats lose up to 5% of their body weight during a 12-hour light cycle, making up this loss plus food needed for normal growth during the 12-hour dark cycle. Thus, failure to eat appropriately during a single dark cycle is determinable from the animal's weight and any changes thereof.
A series of melanocortin receptor antagonist peptides were examined in a bacterial toxin inducing cachexia assay. In this assay, a rat was challenged with a single peripheral injection of lipopolysaccharide (LPS), a bacterial toxin that rapidly induces acute cachexia. The extent of cachexia was measured as a reduction in food intake, measured every two hours. The cachexia typically lasts only a single day.

human MC3R = target: T2, human MC3R (Homo sapiens, UniProt P41968); experiment: cAMP accumulation assay (HTRF), antagonist activity at MC3R; type: cell-based
T2 construct: expressed in transfected cells; host or cells: HEK293/CRE-luc/MC3R
T2 sequence (P41968 whole entry): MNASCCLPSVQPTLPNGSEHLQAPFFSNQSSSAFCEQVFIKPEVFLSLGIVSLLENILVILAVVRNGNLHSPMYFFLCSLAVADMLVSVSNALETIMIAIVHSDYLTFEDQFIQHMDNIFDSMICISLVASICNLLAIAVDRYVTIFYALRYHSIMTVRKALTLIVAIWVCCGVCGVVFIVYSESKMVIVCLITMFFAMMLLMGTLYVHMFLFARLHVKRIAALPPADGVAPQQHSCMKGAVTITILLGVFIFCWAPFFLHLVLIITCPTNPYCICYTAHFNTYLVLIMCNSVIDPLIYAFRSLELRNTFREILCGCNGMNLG

Lewis sarcoma rat = experiment: Reversal of cachexia-induced lethargy; type: in vivo; conditions: once-daily peripheral dosing for 48 hours (2 IP doses)
Description: In animals and humans, cachexia produces “lethargy,” i.e., the aversion to activity. Grossberg et al., J. Neurosci. 31 (31): 11376-11386. […] This therapeutic effect is dependent on a stabilized non-naturally occurring melanocortin analog C-terminal extension. Video recordings characterized control animal behavior as neo-exploratory movement about the cage, i.e., repeated “sniffing” the air to presumably sample odors (e.g., neighboring animals), grooming, and intermittent bouts of eating and drinking. Caldecott-Hazard et al., J. Neurosci. 8 (6): 1951-1961 (1988).
The animal typically remains in one position for an extended period of time (>1 minute). Occasionally it will change position, assuming the new position for an extended period. The rats show no grooming behavior, evident in the appearance of their coat and eyes.

Lewis sarcoma rat model [2] = conditions: previously published results; cited from earlier work
[3] = tested on: urethane-anesthetized rats; experiment: Cardiovascular effects (MAP, heart rate, ECG) in urethane-anesthetized rats; conditions: 200 nmol
Experimental: (§1) These studies were performed in urethane-anesthetized rats, since anesthesia is required for six-lead ECG monitoring. […] Initial selection of doses was guided by FDA exploratory IND studies with a recommendation for at least a 100-fold excess of the human dose.

LPS model of cachexia [4] = conditions: Sutton et al., Peptides 29 (1): 104-111 (2008); cited from earlier work
[5] = tested on: urethane-anesthetized rats; conditions: rat, in vivo
Experimental: as §1

Lewis sarcoma rat model [6] = experiment: Lewis sarcoma rat model of cancer cachexia; type: in vivo; conditions: 2 nmol once per day
Experimental: This sarcoma is an aggressive form of cancer that produces significant cachexia. Popp et al., Cancer 49 (6): 1212-1220 (1982). In the protocol, “treatment” began 8-days after tumor implantation, with a significant decrease in food intake from baseline. Body composition was determined by NMR prior to tumor implantation, and on the final day of the experiment after tumor resection, by ECHO MRI (NMR). Tumor implantation produces cachexia on or about the sixth day. The non-naturally occurring melanocortin analog or saline was administered after day 8 and continued through day 12.

Emax (human MC4R; HEK293, HEK293/MC4R/CRE-GFP, 0.1 nM to 1,000 nM, read-out: Max Activation %): 120%
IC50 (human MC4R; HEK293/MC4R/CRE-GFP, estimated from dose-response curve): < 10 µM
Hill Coefficient (human MC4R; dose-response fit, MC4R): 0.69
Top (%) (human MC4R; dose-response fit, MC4R): 127.47%
Emax (human MC3R; HEK293/CRE-luc/MC3R, 0.1 nM to 1,000 nM, read-out: Max Activation %): 101%
IC50 (human MC3R; HEK293/CRE-luc/MC3R, estimated from dose-response curve): < 10 µM
Hill Coefficient (human MC3R; dose-response fit, MC3R): 1.03
Top (%) (human MC3R; dose-response fit, MC3R): 120.45%
Compound: CCCC[C@H](NC(C)=O)C(=O)N[C@H]1CC(=O)NCCCC[C@@H](C(=O)N2CCC[C@@H]2C(=O)N[C@@H](C(N)=O)C(C)C)NC(=O)[C@H](Cc2c[nH]c3ccccc23)NC(=O)[C@H](CCCNC(=N)N)NC(=O)[C@@H](Cc2ccc3ccccc3c2)NC(=O)[C@@H]2CCCN2C1=O [TCMCB02, Ac-Nle-c[Asp-Pro-dNal(2′)-Arg-Trp-Lys]-dPro-dVal-NH2] (Ac-[Nle]DP[d2Nal]RWK[dP][dV]-NH2; lactam 2-7)
body weight gain overnight (LPS model of cachexia [1]; 2 mg/kg, IP): ~5%
food intake, 12-hours overnight (LPS model of cachexia [1]; 2 mg/kg, IP, baseline = previous 4-day average): 65 % of baseline
anti-cachectic activity after ICV administration (LPS model of cachexia [1]; ICV): equivalent to TCMCB01
oral activity / gastrointestinal transport (LPS model of cachexia [1]; gavage (intra-gastric)): did not have oral activity; also recorded: had no oral activity
peripheral (IP) anti-cachexia activity / blood-brain barrier transport (LPS model of cachexia [1]; peripheral administration): has peripheral activity, significantly reversing LPS-induced cachexia; also recorded: produced anti-cachexia following peripheral administration
anti-cachectic activity relative to the parent compound (LPS model of cachexia [1]; rat, in vivo): 10 fold
behavior (lethargy) (Lewis sarcoma rat): restored “normal” behavior to rats

Compound: AGRP: natural melanocortin system inhibitor; naturally occurring melanocortin antagonist protein (SSRRCVRLHESCLGQQVPCCDPCATCYCRFFNAFCYCRKLGTAMNPCSRT; ends and bridges not checked; cysteine pairing not given here; UniProt O00253 83-132, looked up)
reversal of feeding / cachexia-anorexia syndrome in cachexia models (Lewis sarcoma rat model [2]): 100%

Compound: Ac-NLe-c[Asp-Pro-DNal(2′)-Arg-Trp-Lys]-Pro-Val-NH2 (Ac-[Nle]DP[d2Nal]RWKPV-NH2; lactam 2-7) [PG-932]
Duration [3]: 4 ± 3 min
Peak Heart Rate Response (BPM) [3]: 13 ± 09 BPM
Peak MAP Response (Δ mm Hg) [3]: 5 ± 3 mm Hg
peripheral activity (LPS model of cachexia [4]): active peripherally

Compound: Ac-Nle-c[Asp-His-DNal(2′)-Arg-Trp-Lys]-NH2 [SHU9119]
Peak Heart Rate Response (BPM) [5]: 16 ± 5/3 ± 14 BPM
Peak MAP Response (Δ mm Hg) [5]: 16 ± 5/3 ± 14 mm Hg
reversal of anorexia (Lewis sarcoma rat model [6]): about 70 % of that observed with AGRP
